Experimental data as given in the NIST ThermoML archive (doi:10.1021/je900732r).

Experiment: mn = molality of the nth substance listed, in mol/kg
Conditions: 101 kPa, Liquid; for speed of sound: Pulse-echo method

[Ni+2].[O-][Cl+3]([O-])([O-])[O-].[O-][Cl+3]([O-])([O-])[O-] [nickel perchlorate] + CO
Conditions	mass density, 283.15 K [kg/m3]	mass density, 288.15 K [kg/m3]	mass density, 293.15 K [kg/m3]	mass density, 298.15 K [kg/m3]	mass density, 303.15 K [kg/m3]	mass density, 308.15 K [kg/m3]	mass density, 313.15 K [kg/m3]	speed of sound, 298.15 K [m/s]
m1 = 0.04976	810.894	806.238	801.564	796.875	792.174	787.453	782.702	1108.7
m1 = 0.06138	813.322	808.669	804	799.318	794.619	789.897	785.142	1110.3
m1 = 0.07317	815.812	811.165	806.497	801.821	797.126	792.41	787.658	1111.9
m1 = 0.08448	818.152	813.508	808.845	804.169	799.474	794.767	790.033	1113.4
m1 = 0.09669	820.699	816.056	811.401	806.731	802.044	797.34	792.608	1115.2
m1 = 0.1085	823.23	818.592	813.937	809.271	804.589	799.878	795.147	1116.7
m1 = 0.1208	825.801	821.168	816.518	811.856	807.179	802.481	797.759	1118.3
m1 = 0.1447	830.859	826.231	821.586	816.93	812.261	807.568	802.853	1121.7
m1 = 0.1676	835.774	831.151	826.515	821.865	817.198	812.514	807.813	1124.8
m1 = 0.1901	840.657	836.042	831.412	826.771	822.114	817.44	812.739	1127.8
m1 = 0.2123	845.469	840.858	836.233	831.599	826.95	822.28	817.588	1130.6
m1 = 0.2356	850.636	846.033	841.413	836.783	832.14	827.476	822.785	1134.2

[Co+2].[O-][Cl+3]([O-])([O-])[O-].[O-][Cl+3]([O-])([O-])[O-] [cobalt(II) perchlorate] + CO
Conditions	mass density, 283.15 K [kg/m3]	mass density, 288.15 K [kg/m3]	mass density, 293.15 K [kg/m3]	mass density, 298.15 K [kg/m3]	mass density, 303.15 K [kg/m3]	mass density, 308.15 K [kg/m3]	mass density, 313.15 K [kg/m3]	speed of sound, 298.15 K [m/s]
m1 = 0.04954	810.666	806.009	801.334	796.648	791.945	787.216	782.455	1108.2
m1 = 0.0652	813.871	809.222	804.551	799.871	795.174	790.456	785.712	1110.5
m1 = 0.08043	816.972	812.325	807.661	802.983	798.285	793.568	788.838	1112.6
m1 = 0.09601	820.184	815.542	810.881	806.21	801.517	796.812	792.084	1114.6
m1 = 0.1106	823.205	818.568	813.913	809.247	804.564	799.855	795.128	1116.9
m1 = 0.1255	826.259	821.625	816.975	812.313	807.634	802.929	798.211	1118.6
m1 = 0.157	832.839	828.214	823.572	818.918	814.251	809.557	804.844	1122.7
m1 = 0.1876	839.345	834.726	830.096	825.452	820.793	816.116	811.415	1127
m1 = 0.2171	845.636	841.028	836.402	831.765	827.115	822.438	817.746	1131
m1 = 0.2464	851.879	847.275	842.656	838.024	833.388	828.73	824.046	1135
m1 = 0.2747	858.053	853.458	848.847	844.226	839.592	834.938	830.254	1138.9
m1 = 0.3036	864.446	859.854	855.253	850.642	846.019	841.375	836.709	1143
